Experimental data taken from patent publication US20130331427A1, “METHODS OF STIMULATING CELLULAR GROWTH, SYNAPTIC, REMODELING AND CONSOLIDATION OF LONG-TERM MEMORY” (Blanchette Rockefeller Neuroscience Institute, priority 2007, published 2013).

Tested on: Hermissenda Crassicornis
Assay: Pavlovian conditioning of Hermissenda, memory retention
Type: in vivo
Protocol: Specimens of Hermissenda Crassicornis were maintained in artificial sea water (ASW) at 15° for three days in perforated 50-ml conical centrifuge tubes before starting experiments. […] For selected experiments lactacysteine (10 μM) or anisomycin was added to the ASW.
Pavlovian conditioning of Hermissenda involves repeated pairings of a neutral stimulus, light, with an unconditioned stimulus, orbital shaking. (See, Lederhendler et al. (24) and Epstein et al. (6)). A rotation/shaking stimulus excites the statocyst hair cells and thereby elicits an unconditioned response: a brisk contraction of the muscular undersurface called a foot, accompanied by adherence or “clinging” to the surface that supports the foot. Before conditioning, light elicits a weakly positive phototaxis accompanied by lengthening of the foot. After sufficient light-rotation pairings, light no longer elicits phototaxis, but instead elicits a new response (24): the “clinging” and foot shortening previously elicited only by the unconditional stimulus (FIG. 1). Thus, the meaning of the unconditioned stimulus, rotation or orbital shaking, has been transferred to the conditioned stimulus and is manifested by a light-elicited foot contraction—a negative change of foot length. This conditioned response to light can last for weeks, is not produced by randomized light and rotation, is stimulus-specific, and shares the other defining characteristics of mammalian Pavlovian Conditioning.
Pavlovian conditioning of Hermissenda has well-defined training parameters that produce progressively longer-lasting retention of the learned conditioned response. Two training events (2 TE) of paired light and orbital shaking (see “Methods”), for example, induce a learned conditioned response (light-elicited foot contraction or shortening) that persists without drug treatment for approximately 7 minutes. Four to six training events (4-6 TE) induce a conditioned response that persists up to several hours, but disappears approximately by 1 day after training. Nine TE produces long-term associative memory lasting many days and often up to two weeks.
All animals were tested with the CS alone at 4 h, then at 24-h intervals.

CCC/C=C/C=C/C(=O)O[C@H]1/C(=C/C(=O)OC)C[C@H]2C[C@H]([C@@H](C)O)OC(=O)C[C@H](O)C[C@@H]3C[C@H](OC(C)=O)C(C)(C)[C@](O)(C[C@@H]4C/C(=C/C(=O)OC)C[C@H](/C=C/C(C)(C)[C@]1(O)O2)O4)O3 [bryostatin, bryostatin-1]
memory retention (2 TE plus bryostatin 0.25 ng/ml for 4 h during and after training, minutes without): lasting hours | memory retention (4 TEs plus bryostatin 0.25 ng/ml for 4 h): > 24 h | retention (20 h pre-exposure 0.25 ng/ml, 4-paired TE, at 48 h): persisted | time by which retention was gone (20 hr exposure 0.25 ng/ml, 2-paired TE): ≤ 48 h | concentration that inhibited acquisition and behavioral retention (all training conditions tested): greater than 1.0 ng/ml | memory after 2, 4, or 6 training trials (low doses (0.1-0.25 ng/ml)): markedly enhanced memory | conditioned response (randomized presentations of light and rotation): no conditioned response | time after which behavioral retention was lost (single 4 h exposure 0.25 ng/ml alone, 2-paired TEs 24 hrs later): ≤ 24 h | concentrations that augment acquisition and memory retention (sub-optimal (4 TE) training): < 0.50 ng/mL | long-term retention (LTR) post-training (three successive days of 4-h exposure 0.25 ng/ml, 2-TEs one day later): ≥ 96 h | long-term retention (two successive days of 4-h exposure 0.25 ng/ml, 2-paired TEs): at least 6 days
